Laboratory results from BindingDB's records for doi:10.1002/cbic.200400084 (Laboratorium FÜR Organische Chemie, 2004).

Target: T1, Catechol O-methyltransferase (Rattus norvegicus, UniProt P22734)
T1 sequence (P22734 whole entry): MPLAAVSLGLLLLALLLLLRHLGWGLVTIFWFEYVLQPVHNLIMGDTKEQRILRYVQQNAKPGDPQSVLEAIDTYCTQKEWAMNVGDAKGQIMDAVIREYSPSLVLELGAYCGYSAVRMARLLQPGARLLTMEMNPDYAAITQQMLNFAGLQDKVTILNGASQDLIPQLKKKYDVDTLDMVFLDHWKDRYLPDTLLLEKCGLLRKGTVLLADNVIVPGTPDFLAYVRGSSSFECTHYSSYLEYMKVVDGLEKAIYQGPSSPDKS
Assay: Radiochemical Assay
Conditions: 37 °C
Experimental: The binding affinity of the inhibitors towards Catechol O-methyltransferase in the presence of Mg2+ ions were determined by using a radiochemical assay.

Structure (SMILES)	IC50 [nM]
Nc1ncnc2c1ncn2[C@@H]1O[C@H](/C=C/CNC(=O)c2cc([N+](=O)[O-])cc(O)c2O)[C@@H](O)[C@H]1O [Bi-substrate Inhibitor, 1a]	9
Nc1ncnc2c1ncn2[C@@H]1O[C@H](/C=C/CNC(=O)c2cc(-c3ccc(F)cc3)cc(O)c2O)[C@@H](O)[C@H]1O [Bi-substrate Inhibitor, 1b]	21
Cc1ccc(-c2cc(O)c(O)c(C(=O)NC/C=C/[C@H]3O[C@@H](n4cnc5c(N)ncnc54)[C@H](O)[C@@H]3O)c2)cc1 [Bi-substrate Inhibitor, 1c]	23
Nc1ncnc2c1ncn2[C@@H]1O[C@H](/C=C/CNC(=O)c2cc(-c3ccncc3)cc(O)c2O)[C@@H](O)[C@H]1O [Bi-substrate Inhibitor, 1d]	23
Nc1ncnc2c1ncn2[C@@H]1O[C@H](/C=C/CNC(=O)c2cc(-c3nccs3)cc(O)c2O)[C@@H](O)[C@H]1O [Bi-substrate Inhibitor, 1e]	27
Nc1ncnc2c1ncn2[C@@H]1O[C@H](/C=C/CNC(=O)c2cc(Br)cc(O)c2O)[C@@H](O)[C@H]1O [Bi-substrate Inhibitor, 1f]	28
N#Cc1cc(O)c(O)c(C(=O)NC/C=C/[C@H]2O[C@@H](n3cnc4c(N)ncnc43)[C@H](O)[C@@H]2O)c1 [Bi-substrate Inhibitor, 1h]	29
Cc1ccc(C(=O)c2cc(O)c(O)c(C(=O)NC/C=C/[C@H]3O[C@@H](n4cnc5c(N)ncnc54)[C@H](O)[C@@H]3O)c2)cc1 [Bi-substrate Inhibitor, 1i]	34
Nc1ncnc2c1ncn2[C@@H]1O[C@H](/C=C/CNC(=O)c2cc(C(F)(F)F)cc(O)c2O)[C@@H](O)[C@H]1O [Bi-substrate Inhibitor, 1j]	35
Nc1ncnc2c1ncn2[C@@H]1O[C@H](/C=C/CNC(=O)c2cc(C(=O)C(F)(F)F)cc(O)c2O)[C@@H](O)[C@H]1O [Bi-substrate Inhibitor, 1k]	39
Nc1ncnc2c1ncn2[C@@H]1O[C@H](/C=C/CNC(=O)c2cc(C(=O)c3ccncc3)cc(O)c2O)[C@@H](O)[C@H]1O [Bi-substrate Inhibitor, 1l]	42
Nc1ncnc2c1ncn2[C@@H]1O[C@H](/C=C/CNC(=O)c2cc(Cl)cc(O)c2O)[C@@H](O)[C@H]1O [Bi-substrate Inhibitor, 1m]	44
Nc1ncnc2c1ncn2[C@@H]1O[C@H](/C=C/CNC(=O)c2cc(C(=O)C3CCCCC3)cc(O)c2O)[C@@H](O)[C@H]1O [Bi-substrate Inhibitor, 1n]	83
CN(C)C(=O)/C=C/c1cc(O)c(O)c(C(=O)NC/C=C/[C@H]2O[C@@H](n3cnc4c(N)ncnc43)[C@H](O)[C@@H]2O)c1 [Bi-substrate Inhibitor, 1o]	97
Cc1ccc(S(=O)(=O)c2cc(O)c(O)c(C(=O)NC/C=C/[C@H]3O[C@@H](n4cnc5c(N)ncnc54)[C@H](O)C3O)c2)cc1 (stereo partly drawn) [Bi-substrate Inhibitor, 1p]	213
Cc1ccc(Cc2cc(O)c(O)c(C(=O)NC/C=C/[C@H]3O[C@@H](n4cnc5c(N)ncnc54)[C@H](O)C3O)c2)cc1 (stereo partly drawn) [Bi-substrate Inhibitor, 1q]	608
CN(C)C(=O)c1cc(O)c(O)c(C(=O)NC/C=C/[C@H]2O[C@@H](n3cnc4c(N)ncnc43)[C@H](O)C2O)c1 (stereo partly drawn) [Bi-substrate Inhibitor, 1s]	2000
Nc1ncnc2c1ncn2[C@@H]1O[C@H](/C=C/CNC(=O)c2cccc(O)c2O)C(O)[C@H]1O (stereo partly drawn) [Bi-substrate Inhibitor, 1t]	2600
